# From patent publication US20250059164A1, “IRAK DEGRADERS AND USES THEREOF” (Kymera Therapeutics, Inc., priority 2023, published 2025)
# Key:
# [1] = Rodent pharmacokinetics (rat PK); format: in vivo; conditions: po, dosed intravenously or orally by gavage, plasma, read-out: F % (bioavailability)
# Procedure, shortened: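 F % is reported as a letter code: A for ≥5%, B for ≤5%. It was derived from rat plasma profiles after intravenous or oral gavage dosing, with jugular vein sampling from predose to 24 h (5 min point for IV only).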
# [2] = target: T1, IRAK4 (Homo sapiens, UniProt Q9NWZ3); test: IRAK4 MSD degradation in OCI-LY10; format: cell-based; conditions: OCI-LY10 cells, 24 hrs, Meso Scale Discovery
# T1 construct: endogenous in cells; host or cells: OCI-LY10
# T1 sequence (Q9NWZ3 1-460): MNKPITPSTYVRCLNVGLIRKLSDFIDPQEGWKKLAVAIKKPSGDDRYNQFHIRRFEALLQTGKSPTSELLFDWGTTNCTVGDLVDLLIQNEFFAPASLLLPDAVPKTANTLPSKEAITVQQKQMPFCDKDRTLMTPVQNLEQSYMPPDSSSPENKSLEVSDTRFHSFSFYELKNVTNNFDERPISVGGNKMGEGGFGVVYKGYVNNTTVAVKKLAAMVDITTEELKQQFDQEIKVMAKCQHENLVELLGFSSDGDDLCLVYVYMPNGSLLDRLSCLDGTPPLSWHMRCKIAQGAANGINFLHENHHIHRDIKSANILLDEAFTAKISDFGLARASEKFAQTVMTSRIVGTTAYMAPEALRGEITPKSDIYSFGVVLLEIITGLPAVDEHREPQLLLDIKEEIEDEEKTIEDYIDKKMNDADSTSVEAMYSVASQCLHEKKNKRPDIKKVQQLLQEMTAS
# Procedure, shortened: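 Remaining IRAK4 protein measured by Meso Scale Discovery electrochemiluminescence sandwich assay on lysates of OCI-LY10 cells. Cells were exposed for 4 to 24 hours (37° C., 5% CO2) to eight 1:3-diluted concentrations starting at 1 to 10 μM. DC50 derived by three-parameter logistic fitting.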
SMILES,bioavailability [1] [%],DC50 [2] [nM]
COc1cc2nc([C@H]3CC[C@H](CN4CCC5(CN(c6cccc7c6n(C)c(=O)n7C6CCC(=O)NC6=O)C5)C(F)(F)C4)CC3)sc2cc1NC(=O)c1cncc(C#N)c1 (some centres unmarked) [I-110],≤ 5,10 to 100
COc1cc2nn([C@H]3CC[C@H](COCC4CN(c5cccc6c5n(C)c(=O)n6C5CCC(=O)NC5=O)C4)CC3)cc2cc1NC(=O)c1cncc(C#N)c1 (some centres unmarked) [I-270],≤ 5,10 to 100
Cc1cncc(C(=O)Nc2cc3cn([C@H]4CC[C@H](CN5CC[C@@H](c6cccc7c6n(C)c(=O)n7C6CCC(=O)NC6=O)[C@H](F)C5)CC4)nc3cn2)n1 (some centres unmarked) [I-310],≤ 5,< 10
COc1cc2nn([C@H]3CC[C@H](CN4CC[C@@H](c5cccc6c5n(C)c(=O)n6C5CCC(=O)NC5=O)[C@H](F)C4)CC3)cc2cc1C(=O)Nc1cccc(C(F)(F)F)c1 (some centres unmarked) [I-142],≥ 5,< 10
COc1cc2nn([C@H]3CC[C@H](CN4CCC5(CN(c6c(F)ccc7c6n(C)c(=O)n7C6CCC(=O)NC6=O)C5)C(F)(F)C4)CC3)cc2cc1NC(=O)c1cncc(C#N)c1 (some centres unmarked) [I-260],≤ 5,< 10
COc1ccc2c(c1N1CC3(CCN(C[C@H]4CC[C@H](c5nc6cc(C(C)(C)O)c(NC(=O)c7cccc(C(F)(F)F)n7)cc6o5)CC4)CC3(F)F)C1)n(C)c(=O)n2C1CCC(=O)NC1=O (some centres unmarked) [I-415],≤ 5,< 10
Cn1c(=O)n(C2CCC(=O)NC2=O)c2cccc(N3CC[C@H](NC[C@H]4CC[C@H](n5cc(NC(=O)c6cnn7ccc(N8C[C@H]9C[C@@H]8CO9)nc67)c(C(F)F)n5)CC4)[C@@H](F)C3)c21 (some centres unmarked) [I-135],≥ 5,< 10
Cn1c(=O)n(C2CCC(=O)NC2=O)c2cccc([C@@H]3CCN(C[C@H]4CC[C@H](n5cc6cc(NC(=O)c7cncc(C8CC8)n7)ncc6n5)CC4)C[C@H]3F)c21 (some centres unmarked) [I-338],≤ 5,< 10
"CN(C[C@H]1CC[C@H](c2nc3cc(C(C)(C)O)c(NC(=O)c4cncc(C(F)(F)F)c4)cc3s2)CC1)[C@@H]1CCN(c2cccc3c2n(C)c(=O)n3C2CCC(=O)NC2=O)C[C@H]1F (single isomer, unassigned) [I-159]",≥ 5,10 to 100
"CN(C[C@H]1CC[C@H](c2nc3cc(C(C)(C)O)c(NC(=O)c4cccc(C(F)(F)F)n4)cc3s2)CC1)[C@@H]1CCN(c2cccc3c2n(C)c(=O)n3C2CCC(=O)NC2=O)C[C@@H]1F (single isomer, unassigned) [I-104]",≥ 5,< 10

# The next lines start with the values.
bioavailability [1] [%],DC50 [2] [nM],SMILES
≤ 5,< 10,Cn1c(=O)n(C2CCC(=O)NC2=O)c2cccc([C@@H]3CCN(C[C@H]4CC[C@H](n5cc6cc(NC(=O)c7cncc(C8CC8)n7)ccc6n5)CC4)C[C@H]3F)c21 (some centres unmarked) [I-311]
≤ 5,< 10,COc1cc2nn([C@H]3CC[C@H](CN4CCC5(CN(c6cccc7c6n(C)c(=O)n7C6CCC(=O)NC6=O)C5)C(F)(F)C4)CC3)cc2cc1NC(=O)c1cncc(F)c1 (some centres unmarked) [I-248]
≥ 5,< 10,"Cn1nc(C2CCC(=O)NC2=O)c2cccc([C@H]3CCN(C[C@H]4CC[C@H](n5cc6cc(NC(=O)c7cncc(C#N)c7)c(C(C)(C)O)cc6n5)CC4)C[C@@H]3F)c21 (single isomer, unassigned) [I-363]"
≥ 5,< 10,"Cn1c(=O)n(C2CCC(=O)NC2=O)c2cccc([C@H]3CCN(C[C@H]4CC[C@H](n5cc6cc(NC(=O)c7cncc(C(F)(F)F)n7)ccc6n5)CC4)CC3(F)F)c21 (single isomer, unassigned) [I-180]"
≥ 5,< 10,"CN(C[C@H]1CC[C@H](c2nc3cc(C(C)(C)O)c(NC(=O)c4cncc(C(F)(F)F)n4)cc3s2)CC1)[C@@H]1CCN(c2cccc3c2n(C)c(=O)n3C2CCC(=O)NC2=O)C[C@@H]1F (single isomer, unassigned) [I-309]"
≤ 5,< 10,"O=C1CCC(n2c(=O)oc3c([C@@H]4CCN(C[C@H]5CC[C@H](n6cc7cc(NC(=O)c8cncc(C(F)(F)F)n8)ccc7n6)CC5)C[C@H]4F)cccc32)C(=O)N1 (single isomer, unassigned) [I-357]"
